Values quoted from earlier work, collected in US20030166469A1, “Crop harvesting method using a 1,2,4-triazol-1-ylpropanoic acid and derivatives” (priority 2001, published 2003).

System: cotton
Settings: tested alone, no adjuvant; data of U.S. Pat. No. 6,444,613

In the case of CCOC(=O)C(Cl)Cc1cc(-n2nc(C)n(C(F)F)c2=O)c(F)cc1Cl (stereo not drawn) [Compound Ic, ethyl α,2-dichloro-5-[4-(difluoromethyl)-4,5-dihydro-3-methyl-5-oxo-1H-1,2,4-triazol-1-yl]-4-fluoropropanoate], the defoliation of cotton is listed as at most 29%.
